17 molecules from US4575560A, “Insecticidal diaminoguanidine hydrazone compounds” (American Cyanamid Company, priority 1985, dated 1986) can be followed below.

One assay has as its system Southern Armyworm. Kind of assay: Southern armyworm test, third-instar larvae on treated Sieva lima bean leaves. It is filed as in vivo, Spodoptera eridania (Cramer). As to conditions: third-instar larvae. The procedure, abridged:
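Sieva lima bean plants, primary leaves expanded to 1.91 cm, were dipped with agitation for three seconds in test material dissolved in 65% acetone, with further dilutions in acetone, then air-dried in a hood. A treated leaf was placed in a 9 cm petri dish on moist filter paper with 10 third-instar Spodoptera eridania larvae about 1 cm long. Dishes were covered and kept at 80° F. and 50% r.h. Mortality and feeding were assessed after two days.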

Assay [1] relates to Tobacco Budworm 3rd Instar. Kind of assay: Tobacco budworm secondary test, third-instar larvae on treated cotton cotyledons. It is filed as in vivo, Heliothis virescens (Fabricus).

With `CC(C)OC(=O)N(N=Cc1ccc(OC(F)(F)C(F)F)cc1)C(=N)NN=Cc1ccc(OC(F)(F)C(F)F)cc1` [HCF2 CF2 O / HCF2 CF2 O / -i-C3 H7], the “Mortality Rating Southern Armyworm” value is on record as 0 (No effect) in the assay with Southern Armyworm (10 ppm), 9 (100%) in the assay with Southern Armyworm (100 ppm) and 9 (100%) with Southern Armyworm (1000 ppm). The results for the “Mortality Rating Tobacco Budworm 3rd Instar” value in assay [1] (100 ppm) and in assay [1] (1000 ppm) were 0 (No effect) and 5 (56-65%), respectively.
In the case of `N=C(NN=Cc1ccc2c(c1)OC(F)C(F)(F)O2)NN=Cc1ccc2c(c1)OC(F)C(F)(F)O2` (stereo not drawn) [drawing 48 / S], in the assay with Southern Armyworm (100 ppm), the “Mortality Rating Southern Armyworm” value was 0 (No effect). Besides, in the assay with Southern Armyworm (1000 ppm), the “Mortality Rating Southern Armyworm” value is listed as 9 (100%). Moreover, in assay [1] (1000 ppm), the “Mortality Rating Tobacco Budworm 3rd Instar” value is on record as 0 (No effect) and the “reduced feeding (R) Tobacco Budworm 3rd Instar” value (from here on “reduced feeding”) was “R”.
For `N=C(NN=Cc1ccc(Br)cc1)NN=Cc1ccc(C(F)(F)F)cc1` [CF3 / Br / B], the “Mortality Rating Southern Armyworm” value in the assay with Southern Armyworm (10 ppm), with Southern Armyworm (100 ppm) and with Southern Armyworm (1000 ppm) was 9 (100%) in each case. Besides, the “Mortality Rating Tobacco Budworm 3rd Instar” value in assay [1] (1000 ppm) is recorded as 0 (No effect). Besides, the “reduced feeding” value in assay [1] (1000 ppm) is reported as “R”.
As to `N=C(NN=Cc1ccc(Br)cc1)NN=Cc1ccc(C(F)(F)F)cc1` [CF3 / Br / S], the “Mortality Rating Southern Armyworm” value in the assay on Southern Armyworm (10 ppm) is 0 (No effect); in the assay with Southern Armyworm (1000 ppm), 9 (100%). Moreover, the “Mortality Rating Tobacco Budworm 3rd Instar” value in assay [1] (100 ppm) and in assay [1] (1000 ppm) was 0 (No effect) each time. Moreover, the “reduced feeding” value in assay [1] (100 ppm) and in assay [1] (1000 ppm) was “R” each time.
`N=C(NN=Cc1ccc(OC(F)(F)F)cc1)NN=Cc1ccc(OC(F)(F)F)cc1` [CF3 O / B]: the “Mortality Rating Southern Armyworm” value with Southern Armyworm (10 ppm) is recorded as 4 (46-55%); in the assay on Southern Armyworm (100 ppm), 9 (100%); in the assay on Southern Armyworm (1000 ppm), 9 (100%). For the same molecule, the “Mortality Rating Tobacco Budworm 3rd Instar” value in assay [1] (1000 ppm) is 7 (76-85%).
As for `CCCOC(=O)N(N=Cc1ccc(C(F)(F)F)cc1)C(=N)NN=Cc1ccc(C(F)(F)F)cc1` [CF3 / CF3 / -n-C3 H7], the “Mortality Rating Southern Armyworm” value in the assay with Southern Armyworm (10 ppm) is 4 (46-55%); in the assay on Southern Armyworm (100 ppm), 9 (100%); with Southern Armyworm (1000 ppm), 9 (100%). In assay [1] (1000 ppm), the “Mortality Rating Tobacco Budworm 3rd Instar” value is reported as 0 (No effect).
As for `N=C(NN=Cc1ccc2c(c1)OC(F)C(F)(F)O2)NN=Cc1ccc2c(c1)OC(F)C(F)(F)O2` (stereo not drawn) [drawing 47 / B], the entries for the “Mortality Rating Southern Armyworm” value in the assay on Southern Armyworm (10 ppm) and with Southern Armyworm (1000 ppm) were 0 (No effect) and 9 (100%), respectively. In addition, the “Mortality Rating Tobacco Budworm 3rd Instar” value in assay [1] (100 ppm) and in assay [1] (1000 ppm) was 0 (No effect) throughout. Besides, the “reduced feeding” value in assay [1] (100 ppm) and in assay [1] (1000 ppm) was “R” in each case.
Turning to `CC(C)OC(=O)N(N=Cc1ccc(OC(F)(F)C(Cl)Cl)cc1)C(=N)NN=Cc1ccc(OC(F)(F)C(Cl)Cl)cc1` [HCCL2 CF2 O / HCCl2 CF2 O / -i-C3 H7], the results for the “Mortality Rating Southern Armyworm” value with Southern Armyworm (100 ppm) and with Southern Armyworm (1000 ppm) were 0 (No effect) and 7 (76-85%), respectively. For the same molecule, the “Mortality Rating Tobacco Budworm 3rd Instar” value in assay [1] (100 ppm) and in assay [1] (1000 ppm) was 0 (No effect) in each case. Moreover, the “reduced feeding” value in assay [1] (100 ppm) and in assay [1] (1000 ppm) was “R” throughout.
Take `N=C(NN=Cc1ccc(OC(F)(F)C(Cl)Cl)cc1)NN=Cc1ccc(OC(F)(F)C(Cl)Cl)cc1` [HCCL2 CF2 O / S]: the entries for the “Mortality Rating Southern Armyworm” value in the assay on Southern Armyworm (10 ppm), in the assay with Southern Armyworm (100 ppm) and with Southern Armyworm (1000 ppm) were 7 (76-85%), 9 (100%) and 9 (100%), respectively. Moreover, the “Mortality Rating Tobacco Budworm 3rd Instar” value is listed as 0 (No effect) in assay [1] (100 ppm) and 5 (56-65%) in assay [1] (1000 ppm). For the same molecule, the “reduced feeding” value in assay [1] (100 ppm) is recorded as “R”.
With `N=C(NN=Cc1ccc(Cl)cc1)NN=Cc1ccc(C(F)(F)F)cc1` [CF3 / Cl / B], the “Mortality Rating Southern Armyworm” value in the assay with Southern Armyworm (100 ppm) and in the assay on Southern Armyworm (1000 ppm) was 9 (100%) each time. In addition, the figures for the “Mortality Rating Tobacco Budworm 3rd Instar” value in assay [1] (10 ppm), in assay [1] (100 ppm) and in assay [1] (1000 ppm) were 0 (No effect), 0 (No effect) and 4 (46-55%), respectively. Further, the “reduced feeding” value in assay [1] (100 ppm) and in assay [1] (1000 ppm) was “R” throughout.
Regarding `N=C(NN=Cc1ccc(OC(F)(F)C(Cl)Cl)cc1)NN=Cc1ccc(OC(F)(F)C(Cl)Cl)cc1` [HCCl2 CF2 O / B], the “Mortality Rating Southern Armyworm” value is reported as 0 (No effect) in the assay with Southern Armyworm (10 ppm), 0 (No effect) in the assay with Southern Armyworm (100 ppm) and 9 (100%) with Southern Armyworm (1000 ppm). Moreover, the “Mortality Rating Tobacco Budworm 3rd Instar” value in assay [1] (1000 ppm) is reported as 4 (46-55%). Besides, in assay [1] (1000 ppm), the “reduced feeding” value was “R”.
Regarding `CCOC(=O)N(N=Cc1ccc(SC(F)F)cc1)C(=N)NN=Cc1ccc(SC(F)F)cc1` [HCF2 S / HCF2 s / C2 H5], the “Mortality Rating Southern Armyworm” value in the assay on Southern Armyworm (100 ppm) was 0 (No effect). Besides, the “Mortality Rating Southern Armyworm” value in the assay with Southern Armyworm (1000 ppm) is reported as 9 (100%). In assay [1] (1000 ppm), the “Mortality Rating Tobacco Budworm 3rd Instar” value is on record as 0 (No effect) and the “reduced feeding” value is on record as “R”.
Turning to `N=C(NN=Cc1ccc(OC(F)(F)C(F)F)cc1)N(N=Cc1ccc(OC(F)(F)C(F)F)cc1)C(=O)N1CCCC1` [HCF2 CF2 O / HCF2 CF2 O / (CH2)4], the “Mortality Rating Southern Armyworm” value in the assay with Southern Armyworm (100 ppm) and in the assay with Southern Armyworm (1000 ppm) was 9 (100%) each time. Also, the “Mortality Rating Tobacco Budworm 3rd Instar” value is 0 (No effect) in assay [1] (100 ppm) and 3 (36-45%) in assay [1] (1000 ppm).
In the case of `N=C(NN=Cc1ccc(SC(F)(F)C(F)F)cc1)NN=Cc1ccc(SC(F)(F)C(F)F)cc1` [HCF2 CF2 S / B], the “Mortality Rating Southern Armyworm” value with Southern Armyworm (100 ppm) is on record as 9 (100%). Moreover, the “Mortality Rating Southern Armyworm” value with Southern Armyworm (1000 ppm) is listed as 9 (100%). In addition, in assay [1] (1000 ppm), the “Mortality Rating Tobacco Budworm 3rd Instar” value was 0 (No effect) and the “reduced feeding” value is reported as “R”.
Consider `N=C(NN=Cc1ccc(SC(F)F)cc1)N(N=Cc1ccc(SC(F)F)cc1)C(=O)OCCCl` [HCF2 S / HCF2 S / ClCH2 CH2], for which the results for the “Mortality Rating Southern Armyworm” value in the assay with Southern Armyworm (100 ppm) and with Southern Armyworm (1000 ppm) were 0 (No effect) and 9 (100%), respectively. Also, the “Mortality Rating Tobacco Budworm 3rd Instar” value in assay [1] (1000 ppm) was 0 (No effect). The “reduced feeding” value in assay [1] (1000 ppm) is “R”.
Consider `CCN(CC)C(=O)N(N=Cc1ccc(OC(F)(F)C(F)F)cc1)C(=N)NN=Cc1ccc(OC(F)(F)C(F)F)cc1` [HCF2 CF2 O / HCF2 CF2 O / C2 H5 / C2 H5], for which the “Mortality Rating Southern Armyworm” value is 1 (11-25%) in the assay on Southern Armyworm (10 ppm), 9 (100%) in the assay on Southern Armyworm (100 ppm) and 9 (100%) with Southern Armyworm (1000 ppm). In addition, the entries for the “Mortality Rating Tobacco Budworm 3rd Instar” value in assay [1] (10 ppm), in assay [1] (100 ppm) and in assay [1] (1000 ppm) were 0 (No effect), 0 (No effect) and 5 (56-65%), respectively.
Regarding `CN(C)C(=O)N(N=Cc1ccc(SC(F)F)cc1)C(=N)NN=Cc1ccc(SC(F)F)cc1` [HCF2 S / HCF2 S / CH3 / CH3], the “Mortality Rating Southern Armyworm” value in the assay with Southern Armyworm (10 ppm) is 0 (No effect); in the assay with Southern Armyworm (100 ppm), 9 (100%); in the assay with Southern Armyworm (1000 ppm), 9 (100%). The “Mortality Rating Tobacco Budworm 3rd Instar” value in assay [1] (1000 ppm) is 0 (No effect).
